Data on one compound can be found in patent US12458628B2, “Cancer therapeutic” (J-Pharma Co., Ltd., priority 2017, dated 2025).

“And” between values parts separate entries of the source, which are not always exact repeats. Identical values can stand only once.

The subject of this data set is patients with solid cancer. The data set is described as follows: Phase 1 clinical trial of JPH203 in patients with solid cancer (safety/DLT and efficacy). In kind it is in vivo, human. The following applies: for Effective case: single dose then once daily for 7 consecutive days per cycle; for DLT (dose limiting toxicity): between single administration and test at end of cycle 1. The procedure:
The injection is a lyophilized formulation and contains 50 mg of JPH203 and 1200 mg of sulfobutyl ether-β-cyclodextrin in one vial.
Phase 1 Clinical Trial of JPH203 in Patients with Solid Cancer
This clinical trial involved patients with solid cancer. The object of this clinical trial was to evaluate the safety (dose limiting toxicity: DLT) and efficacy of JPH203.
The patient's primary inclusion criteria and exclusion criteria are as follows:
• Patients in advanced stage, who have been confirmed to have solid cancer and who are refractory or intolerant to standard therapy • Patients whose biopsies or pre-existing tissues are available for LAT1 antibody staining • Patients who can be expected to survive 90 days or more from the date of enrollment Exclusion Criteria • Patients with serious or clinically problematic anamnesis or complications • Patients who received chemotherapy, radiation therapy, immunotherapy, or other therapies aimed at tumor shrinkage effect within 4 weeks prior to study drug administration
The dosing schedule is as follows:
On Day 1, a predetermined dosage was administered in a single dose. The dosage was 12 mg/m^2 (4 cases), 25 mg/m^2 (3 cases), 40 mg/m^2 (3 cases), 60 mg/m^2 (6 cases), or 85 mg/m^2 (1 case). One case of the 12 mg/m^2 dosage group was discontinued after only a single dose due to disease progression.
Cycle 1 was started 8 days or more after the single administration, and the injection was administered once daily for 7 consecutive days. Tests including CT were performed on days 28 to 31 from the start date of cycle 1 administration.
Within 28 days of the test day of the previous cycle, the next cycle was started and the injection was administered once daily for 7 consecutive days. Tests were performed on days 28 to 31 from the start date of administration.
DLT was the following symptoms occurring between the single administration and the test at the end of cycle 1 (from the start of cycle 1 to day 28) and for which the investigator (subinvestigator) determined that the relationship with the study drug could not be denied (“related,” “probably related,” “possibly related,” or “unlikely related”). However, the final determination of DLT was made in consultation between the investigator and the sponsor. If necessary, advice from the Data and Safety Monitoring Board was sought upon determining DLT. • 1) Non-hematologic toxicity of grade 3 or more for which the investigator (subinvestigator) determines that it is difficult to continue the administration of the study drug (except for acneform rash, maculo-papular rash, or urticaria of grade 3, and nausea, vomiting, inappetence, diarrhea, constipation, or fatigue that recovers to grade 1 by symptomatic therapy within 7 days after the occurrence) • 2) Hematotoxicity of grade 4 or more or thrombocytopenia of grade 3 or more requiring blood transfusion • 3) Febrile neutropenia
It should be noted that PD (progression) is when the sum of diameters of the target lesion is increased by 20% or more and the absolute value of sum diameters is increased by 5 mm or more compared to the smallest sum diameters measured at or after the baseline.

Consider `Nc1cc(COc2c(Cl)cc(C[C@H](N)C(=O)O)cc2Cl)c2oc(-c3ccccc3)nc2c1` [JPH203, O-(5-amino-2-phenylbenzoxazol-7-yl)methyl-3,5-dichloro-L-tyrosine], for which the “cases of no change in tumor size (stable: SD)” value runs as follows: (12 mg/m^2 dosage group) 1 case; (25 mg/m^2 dosage group) 1 case; (40 mg/m^2 dosage group) 1 case; (60 mg/m^2 dosage group) 1 case. Besides, under “12 mg/m^2 dosage group”, the “cases of tumor size reduction of 30% or more (partial response: PR)” value is on record as “One”. The “AST/ALT increase of grade 3 (DLT)” value runs as follows: (60 mg/m^2 dosage group) “observed”; (85 mg/m^2 dosage group) “observed”. Also, the Effective case is, setting by setting: (dosage 12 mg/m^2, injection) 2/3; (dosage 25 mg/m^2, injection) 1/3; (dosage 40 mg/m^2, injection) 1/3; (dosage 60 mg/m^2, injection) 1/6; (dosage 85 mg/m^2, injection) 0/1. The “DLT (dose limiting toxicity)” value (dosage 12 mg/m^2) is listed as “No”; the “DLT (dose limiting toxicity)” value (dosage 25 mg/m^2) is recorded as “No”; the “DLT (dose limiting toxicity)” value (dosage 40 mg/m^2) is “No”; the “DLT (dose limiting toxicity)” value (dosage 60 mg/m^2) is reported as “Yes”; the “DLT (dose limiting toxicity)” value (dosage 85 mg/m^2) is reported as “Yes”. In addition, the “cases with significant shrinkage effect in lymph node metastatic lesions” value (lymph node metastatic lesions, all dosage groups) is given as 3 out of 7. Further, the “survival prolonging effects by cancer type (Swimmer plot, FIG. 2)” value (months of survival for each subject) was “exhibits survival prolonging effects on bile duct cancer, colorectal cancer, and pancreatic cancer”. Moreover, the “shrinkage of lymph node metastatic lesions (individual cases)” value (the 3 responding cases out of 7) is 55% and 69.4% and 80%. Further, under “tumor shrinkage ratio for each subject”, the “tumor shrinkage effects by cancer type (Waterfall plot, FIG. 1)” value was “exhibits tumor shrinkage effects on bile duct cancer, colorectal cancer, esophageal cancer, and breast cancer”.
